Measured values as given in patent US10752612B2, “PLK4 inhibitors” (LUDWIG INSTITUTE FOR CANCER RESEARCH LTD, priority 2015, dated 2020).

target: T1, human Plk4 kinase domain (aa 2-275) (Homo sapiens, UniProt O00444); assay: Plk4 kinase assay (ADP-Glo); type: biochemical; conditions: Table 1
T1 construct: purified 6×His-tagged human Plk4 kinase domain (aa 2-275); 6xHis; made in house; host or cells: E. coli
T1 sequence (O00444 2-275): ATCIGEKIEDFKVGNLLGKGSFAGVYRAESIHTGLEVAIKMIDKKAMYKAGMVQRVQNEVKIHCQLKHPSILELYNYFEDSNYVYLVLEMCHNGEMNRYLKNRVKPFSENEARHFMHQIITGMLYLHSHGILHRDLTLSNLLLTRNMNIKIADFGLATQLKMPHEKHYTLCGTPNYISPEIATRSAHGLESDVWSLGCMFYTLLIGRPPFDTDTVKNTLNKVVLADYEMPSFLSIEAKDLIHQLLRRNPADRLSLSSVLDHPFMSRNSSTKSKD
In short: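 Enzyme at 2.5-10 nM final, pH 8.0, reacted 4-16 hours at 25° C; ADP generation read by ADP-Glo luminescence. Ki derived from IC50 by Cheng-Prusoff or, for tight binders, Copeland formalism.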

IC50 | Compound
< 1 µM | Cc1cc(Nc2cc(C)[nH]n2)nc(Sc2ccc(NC(=O)C3CC3)cc2)n1
< 1 µM | CCN(CC)c1nc(Sc2ccc(NC(=O)C3CC3)cc2)nc(Nc2cc(C)[nH]n2)c1C
< 1 µM | Cc1cc(Nc2nc(Sc3ccc(NC(=O)C4CC4)cc3)nc(Cl)c2C)n[nH]1
< 1 µM | Cc1cc(Nc2nc(Sc3ccc(NC(=O)C4CC4)cc3)nc(N(C)CCN(C)C)c2C)n[nH]1
< 1 µM | Cc1cc(Nc2nc(Sc3ccc(NC(=O)C4CC4)cc3)nc(NCCN(C)C)c2C)n[nH]1
< 1 µM | CNCCN(C)c1nc(Sc2ccc(NC(=O)C3CC3)cc2)nc(Nc2cc(C)[nH]n2)c1C
< 1 µM | COCCN(C)c1nc(Sc2ccc(NC(=O)C3CC3)cc2)nc(Nc2cc(C)[nH]n2)c1C
0.1 to 1 µM | Cc1cc(Nc2nc(Sc3ccc(NC(=O)C4CC4)cc3)nc(-n3ccnc3)c2C)n[nH]1
> 1 µM | CCc1cc(Nc2nc(Sc3ccc(NC(=O)C4CC4)cc3)nc(N3CCN(C)CC3)c2C)n[nH]1
0.1 to 1 µM | COc1c(Nc2cc(C)[nH]n2)nc(Sc2ccc(NC(C)=O)cc2)nc1N1CCCCCC1
0.1 to 1 µM | COc1c(Nc2cc(C)[nH]n2)nc(Sc2ccc(NC(C)=O)cc2)nc1N1CCC(C)CC1
< 1 µM | COc1c(Nc2cc(C)[nH]n2)nc(Sc2ccc(NC(C)=O)cc2)nc1N(C)C(C)C
< 1 µM | CC(=O)Nc1ccc(Sc2nc(Nc3cc(C)[nH]n3)c(C)c(N3CCCCC3C)n2)cc1 (stereo not shown)
< 1 µM | CCN1CCN(c2nc(Sc3ccc(NC(C)=O)cc3)nc(Nc3cc(C)[nH]n3)c2C)CC1
< 1 µM | COCC(=O)N1CCN(c2nc(Sc3ccc(NC(C)=O)cc3)nc(Nc3cc(C)[nH]n3)c2OC)CC1
< 1 µM | COc1c(Nc2cc(C)[nH]n2)nc(Sc2ccc(NC(C)=O)cc2)nc1N1CCC(F)(F)CC1
< 1 µM | COc1c(Nc2cc(C)[nH]n2)nc(Sc2ccc(NC(C)=O)cc2)nc1N1CCC(F)CC1
< 1 µM | COc1c(Nc2cc(C)[nH]n2)nc(Sc2ccc(NC(C)=O)cc2)nc1N1CCC(O)CC1
< 1 µM | COc1c(Nc2cc(C)[nH]n2)nc(Sc2ccc(NC(C)=O)cc2)nc1N1CC=CCC1
< 1 µM | COc1c(Nc2cc(C)[nH]n2)nc(Sc2ccc(NC(C)=O)cc2)nc1N1CC=C(F)CC1
< 1 µM | COc1c(Nc2cc(C)[nH]n2)nc(Sc2ccc(NC(C)=O)cc2)nc1N1CCC(C(C)=O)CC1
< 1 µM | COc1c(Nc2cc(C)[nH]n2)nc(Sc2ccc(NC(C)=O)cc2)nc1N1CCC(N)CC1

IC50 | Compound
< 1 µM | COc1c(Nc2cc(C)[nH]n2)nc(Sc2ccc(NC(C)=O)cc2)nc1N1CCC(N(C)C)CC1
< 1 µM | CC(=O)Nc1ccc(Sc2nc(Nc3cc(C)[nH]n3)c(C)c(N3CCC(CCN(C)C)CC3)n2)cc1
0.1 to 1 µM | COc1c(Nc2cc(C)[nH]n2)nc(Sc2ccc(NC(C)=O)cc2)nc1N1CCCCC1C (stereo not shown)
< 1 µM | CCN1CCN(c2nc(Sc3ccc(NC(C)=O)cc3)nc(Nc3cc(C)[nH]n3)c2OC)CC1
< 1 µM | COc1c(Nc2cc(C)[nH]n2)nc(Sc2ccc(NC(C)=O)cc2)nc1N1CCN(C(=O)C(C)C)CC1
< 1 µM | CCC(=O)N1CCN(c2nc(Sc3ccc(NC(C)=O)cc3)nc(Nc3cc(C)[nH]n3)c2OC)CC1
< 1 µM | COc1c(Nc2cc(C)[nH]n2)nc(Sc2ccc(S(=O)(=O)Cc3ccccc3)cc2)nc1N1CCN(C2CCN(C)CC2)CC1
< 1 µM | COc1c(Nc2cc(C)[nH]n2)nc(Sc2ccc(S(=O)(=O)Cc3ccccc3)cc2)nc1N1CCC(N2CCN(C)CC2)CC1
< 1 µM | CSc1nc(Nc2cc(C)[nH]n2)c(C)c(N2CCC(O)CC2)n1
< 1 µM | CSc1nc(Nc2cc(C)[nH]n2)c(C)c(N2CCOCC2)n1
< 1 µM | CC(=O)Nc1ccc(Sc2nc(Nc3cc(C)[nH]n3)c(C)c(N3CCN(C(C)C)CC3)n2)cc1
< 1 µM | CC(=O)Nc1ccc(Sc2nc(Nc3cc(C)[nH]n3)c(C)c(N3CCN(C(=O)C(C)C)CC3)n2)cc1
< 1 µM | CCC(=O)N1CCN(c2nc(Sc3ccc(NC(C)=O)cc3)nc(Nc3cc(C)[nH]n3)c2C)CC1
< 1 µM | CNCC(=O)N1CCN(c2nc(Sc3ccc(NC(C)=O)cc3)nc(Nc3cc(C)[nH]n3)c2C)CC1
< 1 µM | CC(=O)Nc1ccc(Sc2nc(Nc3cc(C)[nH]n3)c(C)c(N3CCN(C(=O)CN(C)C)CC3)n2)cc1
< 1 µM | CNC1CCN(c2nc(Sc3ccc(NC(C)=O)cc3)nc(Nc3cc(C)[nH]n3)c2C)CC1
< 1 µM | CC(=O)Nc1ccc(Sc2nc(Nc3cc(C)[nH]n3)c(C)c(N3CCC(C(C)=O)CC3)n2)cc1
< 1 µM | COc1c(Nc2cc(C)[nH]n2)nc(Sc2ccc(NC(C)=O)cc2)nc1N1CCN(C(C)C)CC1
< 1 µM | CNCC(=O)N1CCN(c2nc(Sc3ccc(NC(C)=O)cc3)nc(Nc3cc(C)[nH]n3)c2OC)CC1
< 1 µM | COc1c(Nc2cc(C)[nH]n2)nc(Sc2ccc(NC(C)=O)cc2)nc1N1CCN(C(=O)CN(C)C)CC1
< 1 µM | Cc1cc(Nc2nc(Sc3ccccc3)nc(N(C)C(C)C)c2C)n[nH]1
< 1 µM | CNC(=O)Nc1ccc(Sc2nc(Nc3cc(C)[nH]n3)c(C)c(N3CCC(O)CC3)n2)cc1

IC50 | Compound
< 1 µM | CNC(=O)Nc1ccc(Sc2nc(Nc3cc(C)[nH]n3)c(C)c(N3CCOCC3)n2)cc1
< 1 µM | Cc1cc(Nc2nc(Sc3ccccc3)nc(N3CCC(O)CC3)c2C)n[nH]1
< 1 µM | COc1c(Nc2cc(C)[nH]n2)nc(Sc2ccc(S(=O)(=O)Cc3ccccc3)cc2)nc1N1CCN(CCN2CCCC2)CC1
< 1 µM | Cc1cc(Nc2nc(Sc3ccccc3)nc(N3CCOCC3)c2C)n[nH]1
< 1 µM | CC(=O)Nc1ccc(Sc2nc(Nc3cc(C)[nH]n3)c(C)c(N3CCC(N)CC3)n2)cc1
< 1 µM | CC(=O)Nc1ccc(Sc2nc(Nc3cc(C)[nH]n3)c(C)c(N3CCC(N(C)C)CC3)n2)cc1
< 1 µM | CC(=O)Nc1ccc(Sc2nc(Nc3cc(C)[nH]n3)c(C)c(N3CCC(C)(O)CC3)n2)cc1
< 1 µM | CCN(CC)c1nc(Sc2ccc(NC(C)=O)cc2)nc(Nc2cc(C)[nH]n2)c1C
< 1 µM | Cc1cc(Nc2nc(Sc3ccc(N)cc3)nc(N3CCC(O)CC3)c2C)n[nH]1
< 1 µM | Cc1cc(Nc2nc(Sc3ccc(N)cc3)nc(N3CCOCC3)c2C)n[nH]1
< 1 µM | COCC(=O)N1CCN(c2nc(Sc3ccccc3)nc(Nc3cc(C)[nH]n3)c2C)CC1
< 1 µM | CSc1nc(Nc2cc(C)[nH]n2)c(C)c(N(C)C(C)C)n1
< 1 µM | COc1c(Nc2cc(C)[nH]n2)nc(Sc2ccc(NC(C)=O)cc2)nc1N1CCC(CCN(C)C)CC1
< 1 µM | CNC(=O)Nc1ccc(Sc2nc(Nc3cc(C)[nH]n3)c(C)c(N(C)C(C)C)n2)cc1
< 1 µM | CNC(=O)Nc1ccc(Sc2nc(Nc3cc(C)[nH]n3)c(C)c(N3CCN(C(=O)COC)CC3)n2)cc1
< 1 µM | Cc1cc(Nc2nc(Sc3ccc(N)cc3)nc(N(C)C(C)C)c2C)n[nH]1
< 1 µM | COCC(=O)N1CCN(c2nc(Sc3ccc(N)cc3)nc(Nc3cc(C)[nH]n3)c2C)CC1
< 1 µM | Cc1ccc(Sc2nc(Nc3cc(C)[nH]n3)c(C)c(N3CCC(O)CC3)n2)cc1
< 1 µM | Cc1ccc(Sc2nc(Nc3cc(C)[nH]n3)c(C)c(N3CCOCC3)n2)cc1
< 1 µM | COCC(=O)N1CCN(c2nc(Sc3ccc(C)cc3)nc(Nc3cc(C)[nH]n3)c2C)CC1
< 1 µM | COc1c(Nc2cc(C)[nH]n2)nc(Sc2ccc(S(=O)(=O)Cc3ccccc3)cc2)nc1N1CCN(CCN2CCCCC2)CC1
< 1 µM | COc1c(Nc2cc(C)[nH]n2)nc(Sc2ccc(S(=O)(=O)Cc3ccccc3)cc2)nc1N1CCN(CCN2C(C)CCCC2C)CC1 (stereo not shown)

IC50 | Compound
< 1 µM | COc1c(Nc2cc(C)[nH]n2)nc(Sc2ccc(S(=O)(=O)Cc3ccccc3)cc2)nc1N1CCN(CCN2CCC(O)CC2)CC1
< 1 µM | CC(=O)Nc1ccc(Sc2nc(Nc3cc(C)[nH]n3)c(Cl)c(N3CCC(O)CC3)n2)cc1
< 1 µM | CC(=O)Nc1ccc(Sc2nc(N3CCC(O)CC3)nc(Nc3cc(C)[nH]n3)c2Cl)cc1
< 1 µM | CCN(c1nc(Sc2ccc(NC(C)=O)cc2)nc(Nc2cc(C)[nH]n2)c1C)C(C)C
< 1 µM | CC(=O)Nc1ccc(Sc2nc(Nc3cc(C)[nH]n3)c(C)c(N(CCO)C(C)C)n2)cc1
< 1 µM | CC(=O)Nc1ccc(Sc2nc(Nc3cc(C)[nH]n3)c(C)c(N3CCN(CCN4CCCCC4)CC3)n2)cc1
< 1 µM | CCOc1c(Nc2cc(C)[nH]n2)nc(Sc2ccc(NC(C)=O)cc2)nc1N1CCC(O)CC1
< 1 µM | Cc1ccc(Sc2nc(Nc3cc(C)[nH]n3)c(C)c(N(C)C(C)C)n2)cc1
< 1 µM | COCC(=O)N1CCN(c2nc(SC)nc(Nc3cc(C)[nH]n3)c2C)CC1
0.1 to 1 µM | CCOc1c(Nc2cc(C)[nH]n2)nc(SC)nc1N1CCC(O)CC1
0.1 to 1 µM | CCOc1c(Nc2cc(C)[nH]n2)nc(SC)nc1N1CCCCC1
0.1 to 1 µM | CCOc1c(Nc2cc(C)[nH]n2)nc(SC)nc1N1CCN(C)CC1
0.1 to 1 µM | CCOc1c(Nc2cc(C)[nH]n2)nc(SC)nc1N1CCN(CCN(C)C)CC1
< 1 µM | Cc1cc(Nc2nc(Sc3ccc(NC(=O)C4CC4)cc3)nc(N3CCC(O)CC3)c2C)n[nH]1
< 1 µM | COc1c(Nc2cc(C)[nH]n2)nc(Sc2ccc(NC(=O)C3CC3)cc2)nc1N1CCC(O)CC1
< 1 µM | CC(=O)Nc1ccc(Sc2nc(Nc3cc(C)[nH]n3)c(C)c(N3C4CCC3CC(O)C4)n2)cc1 (stereo not shown)
< 1 µM | COc1c(Nc2cc(C)[nH]n2)nc(Sc2ccc(NC(C)=O)cc2)nc1N1C2CCC1CC(O)C2 (stereo not shown)
< 1 µM | COc1c(Nc2cc(C)[nH]n2)nc(Sc2ccc(S(=O)(=O)Cc3ccccc3)cc2)nc1N1CCO[C@H](C)C1
< 1 µM | COc1c(Nc2cc(C)[nH]n2)nc(Sc2ccc(S(=O)(=O)Cc3ccccc3)cc2)nc1N1CCN(C2CCN(Cc3ccccc3)CC2)CC1
